Assay results from patent publication US9090593B2, “Bicyclic compounds as Pim inhibitors” (AMGEN INC., priority 2010, dated 2015).
Counter-ions that a name gives are not always drawn. Like-named read-outs stand apart in the source and are kept apart here.

What was measured:
KMS-Cell = assay: KMS cell IC50 (Table 4); assay type: cell-based; conditions: KMS cells
[1] = biological target: T1, full length recombinant Pim-1 protein (Homo sapiens, UniProt P11309); assay: Pim-1 enzyme assay (HTRF, phosphorylation of biotinylated-BAD (S112) peptide); assay type: biochemical; conditions: read-out: Pim_1_IC50
T1 construct: by full length recombinant Pim-1, Pim-2, or Pim-3 protein; hexahistidine tag followed by a thrombin cleavage site (N); made in house; host or cells: Sf9 (baculovirus) or E. coli (pET28)
T1 sequence (P11309 whole entry): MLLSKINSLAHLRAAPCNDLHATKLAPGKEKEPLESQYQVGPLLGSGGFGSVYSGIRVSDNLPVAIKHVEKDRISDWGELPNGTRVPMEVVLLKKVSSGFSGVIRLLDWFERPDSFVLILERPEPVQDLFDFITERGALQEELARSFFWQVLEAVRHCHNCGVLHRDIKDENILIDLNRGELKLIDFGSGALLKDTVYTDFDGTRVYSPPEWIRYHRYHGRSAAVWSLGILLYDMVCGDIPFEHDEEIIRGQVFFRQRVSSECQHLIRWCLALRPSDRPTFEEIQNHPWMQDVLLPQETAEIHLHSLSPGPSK
Outline: (§1)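 Recombinant full-length Pim-1 or Pim-2 was incubated with biotinylated BAD (S112) peptide in pH 7.0 Hepes buffer with BSA and DTT. After an EDTA stop, phosphopeptide was quantified by time-resolved FRET between a europium antibody and streptavidin-APC, and IC50 values came from 4-parameter logistic curves.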

[2] = biological target: T2, full length recombinant Pim-2 protein (Homo sapiens, UniProt Q9P1W9); assay: Pim-2 enzyme assay (HTRF, phosphorylation of biotinylated-BAD (S112) peptide); assay type: biochemical; conditions: read-out: Pim2_IC50
T2 construct: by full length recombinant Pim-1, Pim-2, or Pim-3 protein; hexahistidine tag followed by a thrombin cleavage site (N); made in house; host or cells: Sf9 (baculovirus) or E. coli (pET28)
T2 sequence (Q9P1W9 whole entry): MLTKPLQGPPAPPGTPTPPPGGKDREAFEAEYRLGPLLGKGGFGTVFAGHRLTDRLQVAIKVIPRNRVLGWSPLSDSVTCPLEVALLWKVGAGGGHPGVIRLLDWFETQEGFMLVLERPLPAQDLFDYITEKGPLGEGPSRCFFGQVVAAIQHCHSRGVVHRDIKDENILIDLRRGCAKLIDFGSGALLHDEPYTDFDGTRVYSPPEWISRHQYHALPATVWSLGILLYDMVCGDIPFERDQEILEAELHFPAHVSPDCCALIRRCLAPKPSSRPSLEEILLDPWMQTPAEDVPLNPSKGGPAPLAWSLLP
Outline: as §1

[3] = biological target: T3, full length recombinant Pim-3 protein (Homo sapiens, UniProt Q86V86); assay: Pim-3 enzyme assay (HTRF, phosphorylation of biotinylated-BAD (S112) peptide); assay type: biochemical; conditions: read-out: Pim3 IC50
T3 construct: by full length recombinant Pim-1, Pim-2, or Pim-3 protein; purchased Millipore (UK)
Outline: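 HTRF read-out, streptavidin-APC plus Eu-labelled anti-phospho-BAD (S112) antibody, measures BAD peptide phosphorylation by full-length recombinant Pim-3. Buffer: 60 mM Hepes pH 7.0, 2 mM DTT, 0.05% BSA; EDTA (3 mM) stop. Percent of control per well, IC50 by 4-parameter logistic fit.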

[4] = biological target: T4, Pim-2 stably transfected into the U2OS human osteogenic sarcoma line (Homo sapiens, UniProt Q9P1W9); assay: Pim cell assay, phospho-BAD normalized against total BAD, U2OS stably transfected with Pim-2; assay type: cell-based; conditions: read-out: Pim2_Cell_IC50; note: high dose 31.6 µM
T4 construct: expressed in transfected cells; host or cells: U2OS human osteogenic sarcoma line
T4 sequence (Q9P1W9 whole entry): as the sequence (Q9P1W9 whole entry) above
Outline: (§2)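 Read-out is phospho-BAD relative to total BAD, by MSD electrochemiluminescence on lysates, expressed as % phosphoprotein = (2×phospho)/(phospho+total)×100. Engineered U2OS lines carrying stably transfected Pim-1 or Pim-2 received 10-point compound dilutions at 0.3% final DMSO after overnight culture at 37 °C; DMSO-only wells served as high control.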

[5] = biological target: T5, Pim-1 stably transfected into the U2OS human osteogenic sarcoma line (Homo sapiens, UniProt P11309); assay: Pim cell assay, phospho-BAD normalized against total BAD, U2OS stably transfected with Pim-1; assay type: cell-based; conditions: read-out: Pim1_Cell_IC50
T5 construct: expressed in transfected cells; host or cells: U2OS human osteogenic sarcoma line
T5 sequence (P11309 whole entry): as the sequence (P11309 whole entry) above
Outline: as §2

SMILES	IC50 (KMS-Cell) [µM]	IC50 [1] [µM]	IC50 [2] [µM]	IC50 [3] [µM]	IC50 [4] [µM]	IC50 [5] [µM]	IC50 ([1]; enzyme assay, Pim-1) [µM]	IC50 ([2]; enzyme assay, Pim-2) [µM]
CC(O)c1cccc(-c2ccc3[nH]cc(-c4cncc(O[C@@H]5CCCNC5)n4)c3c2)c1 (mixture of isomers) [Example 359]	4.84	0.009	0.021	–	–	–	–	–
O[C@@H]1CN(c2cncc(-c3n[nH]c4ccc(-c5c(F)cccc5F)cc34)n2)CC[C@@H]1O (racemic) [Example 248, cis-1-(6-(5-(2,6-difluorophenyl)-1H-indazol-3-yl)-2-pyrazinyl)-3,4-piperidinediol]	> 31.6	0.017	0.043	–	–	–	–	–
Fc1cccc(F)c1-c1ccc2[nH]nc(-c3cncc(CC4CCCNC4)n3)c2c1 (racemic) [Example 272, 5-(2,6-difluorophenyl)-3-(6-(3-piperidinylmethyl)-2-pyrazinyl)-1H-indazole ditrifluoroacetate]	13	0.013	0.054	–	–	–	–	–
O=c1cc(-c2n[nH]c3ccc(-c4ccc(Cl)cc4F)cc23)nc(O[C@@H]2CNCC[C@H]2F)[nH]1 (racemic) [Example 283, 6-(5-(4-chloro-2-fluorophenyl)-1H-indazol-3-yl)-2-((trans-4-fluoropiperidin-3-yl)oxy)pyrimidin-4(3H)-one trifluoroacetate]	1.89	0.002	0.001	–	–	–	–	–
O=c1cc(-c2n[nH]c3ccc(-c4nccs4)cc23)nc(O[C@@H]2CNCC[C@H]2F)[nH]1 (racemic) [Example 289, 2-((trans-4-fluoropiperidin-3-yl)oxy)-6-(5-(thiazol-2-yl)-1H-indazol-3-yl)pyrimidin-4(3H)-one trifluoroacetate]	3.54	–	0.001	–	–	–	–	–
CC(C)C1CCNCC1Oc1cncc(-c2n[nH]c3ccc(-c4c(F)cccc4F)cc23)n1 (single isomer, unassigned) [Example 395]	10	0.006	0.009	–	–	–	–	–
Fc1cccc(F)c1-c1ccc2[nH]nc(-c3cncc(OC4C=CCNC4)n3)c2c1 (single isomer, unassigned) [Example 427]	> 15.8	0.013	0.037	–	–	–	–	–
Fc1cccc(F)c1-c1ccc2[nH]nc(-c3cncc(OC4CCNCC45CC5)n3)c2c1 (single isomer, unassigned) [Example 430]	7.85	0.001	0.006	–	–	–	–	–
Fc1cccc(F)c1-c1ccc2[nH]cc(-c3cncc(OC4CNCCC45CC5)n3)c2c1 (single isomer, unassigned) [Example 438]	11.9	0.001	0.002	–	–	–	–	–
CC1CNCC(Oc2cncc(-c3n[nH]c4ccc(-c5c(F)cccc5F)cc34)n2)C1 (single isomer, unassigned) [Example 469]	3.05	0.002	0.004	–	–	–	–	–
CC1CNCC(Oc2nc(O)cc(-c3n[nH]c4ccc(-c5c(F)cccc5F)cc34)n2)C1 (single isomer, unassigned) [Example 568]	2.09	0.02	0.021	–	–	–	–	–
CC1CNCC(Oc2nc(O)cc(-c3n[nH]c4ccc(-c5c(F)cccc5F)cc34)n2)C1 (single isomer, unassigned) [Example 569]	0.282	0.001	0.001	–	–	–	–	–
CC(C)Oc1cncc(-c2ccc3[nH]cc(-c4ccc5cn[nH]c5c4)c3c2)n1 [Example 221, 6-(5-(6-(1-methylethoxy)-2-pyrazinyl)-1H-indol-3-yl)-1H-indazole]	–	–	–	0.033	> 31.6	1.92	0.05	0.506
CC(C)Oc1cncc(-c2ccc3[nH]cc(-c4cncc(N5CCOCC5)n4)c3c2)n1 [Example 225, 5-(6-(1-methylethoxy)-2-pyrazinyl)-3-(6-(4-morpholinyl)-2-pyrazinyl)-1H-indole]	–	–	–	0.138	> 31.6	1.47	0.077	> 3
CC(C)Oc1cncc(-c2ccc3[nH]cc(-c4csc(-n5ccccc5=O)n4)c3c2)n1 [Example 227, 1-(4-(5-(6-(1-methylethoxy)-2-pyrazinyl)-1H-indol-3-yl)-1,3-thiazol-2-yl)-2(1H)-pyridinone]	–	–	–	0.206	> 15.8	> 15.8	0.1	> 3
CC(C)Oc1cncc(-c2ccc3[nH]cc(-c4csc(-n5ccnc5)n4)c3c2)n1 [Example 228, 3-(2-(1H-imidazol-1-yl)-1,3-thiazol-4-yl)-5-(6-(1-methylethoxy)-2-pyrazinyl)-1H-indole]	–	–	–	0.042	> 31.6	3.42	0.043	1.41
CC(C)Oc1cncc(-c2ccc3[nH]cc(-c4cncc(N(C)C)n4)c3c2)n1 [Example 230, N,N-dimethyl-6-(5-(6-(1-methylethoxy)-2-pyrazinyl)-1H-indol-3-yl)-2-pyrazinamine]	–	–	–	0.05	> 31.6	2.83	0.089	2.36
O=c1cc(-c2n[nH]c3cc(F)c(-c4c(F)cccc4F)cc23)nc(O[C@H]2CNCC[C@@H]2F)[nH]1 [Example 544]	0.633	–	0.001	–	–	–	–	–
O=c1cc(-c2n[nH]c3ccc(-c4c(F)cccc4F)cc23)nc(OC2CNCCC2F)[nH]1 (stereo not shown) [Example 555]	0.307	–	–	–	–	–	–	–

More lines, now with the values ahead:

IC50 (KMS-Cell) [µM]	IC50 [1] [µM]	IC50 [2] [µM]	IC50 [3] [µM]	IC50 [4] [µM]	IC50 [5] [µM]	IC50 ([1]; enzyme assay, Pim-1) [µM]	IC50 ([2]; enzyme assay, Pim-2) [µM]	SMILES
2.8	0.013	0.006	–	–	–	–	–	CC(c1ccc2[nH]nc(-c3cncc(O[C@H]4CNCCC45CC5)n3)c2c1)C(F)(F)F (single isomer, unassigned) [Example 259]
2.19	0.009	0.005	–	–	–	–	–	CC(c1ccc2[nH]nc(-c3cncc(O[C@H]4CNCCC45CC5)n3)c2c1)C(F)(F)F (single isomer, unassigned) [Example 260]
4.31	0.004	0.004	–	–	–	–	–	O=C(NC1CC1)c1cccc(-c2ccc3[nH]nc(-c4cncc(O[C@H]5CNCCC56CC6)n4)c3c2)c1 [Example 247, 3-(3-(6-((4R)-6-azaspiro[25]oct-4-yloxy)-2-pyrazinyl)-1H-indazol-5-yl)-N-cyclopropylbenzamide]
5.58	0.009	0.009	–	–	–	–	–	CC(C)c1ccc2[nH]nc(-c3cncc(O[C@H]4CNCCC45CC5)n3)c2c1 [Example 253, 3-(6-((4R)-6-azaspiro[2.5]oct-4-yloxy)-2-pyrazinyl)-5-(1-methylethyl)-1H-indazole]
3.28	0.006	0.011	–	–	–	–	–	C=C(C)c1ccc2[nH]nc(-c3cncc(O[C@H]4CNCCC45CC5)n3)c2c1 [Example 256, 3-(6-((4R)-6-azaspiro[2.5]oct-4-yloxy)-2-pyrazinyl)-5-(1-methylethenyl)-1H-indazole]
1.17	0.004	0.002	–	–	–	–	–	C=C(c1ccc2[nH]nc(-c3cncc(O[C@H]4CNCCC45CC5)n3)c2c1)C(F)(F)F [Example 257, 3-(6-((4R)-6-azaspiro[2.5]oct-4-yloxy)-2-pyrazinyl)-5-(1-(trifluoromethyl)ethenyl)-1H-indazole]
3.19	0.009	0.006	–	–	–	–	–	CC(c1ccc2[nH]nc(-c3cncc(O[C@H]4CNCCC45CC5)n3)c2c1)C(F)(F)F (stereo partly drawn) [Example 258, 3-(6-((4R)-6-azaspiro[25]oct-4-yloxy)-2-pyrazinyl)-5-(2,2,2-trifluoro-1-methylethyl)-1H-indazole]
1.49	0.006	0.004	–	–	–	–	–	FC(F)(F)C1(c2ccc3[nH]nc(-c4cncc(O[C@H]5CNCCC56CC6)n4)c3c2)CC1 [Example 261, 3-(6-((4R)-6-azaspiro[2.5]oct-4-yloxy)-2-pyrazinyl)-5-(1-(trifluoromethyl)cyclopropyl)-1H-indazole]
2.22	0.004	0.005	–	–	–	–	–	CC1(c2ccc3[nH]nc(-c4cncc(O[C@H]5CNCCC56CC6)n4)c3c2)CC1 [Example 262, 3-(6-((4R)-6-azaspiro[2.5]oct-4-yloxy)-2-pyrazinyl)-5-(1-methylcyclopropyl)-1H-indazole]
5.78	0.009	0.035	–	–	–	–	–	COC(=O)c1ccc2[nH]nc(-c3cncc(O[C@H]4CNCCC45CC5)n3)c2c1 [Example 265, methyl 3-(6-((4R)-6-azaspiro[25]oct-4-yloxy)-2-pyrazinyl)-1H-indazole-5-carboxylate bis(2,2,2-trifluoroacetate)]
0.56	–	0.001	–	–	–	–	–	CC(=O)Nc1ccc(-c2ccc3[nH]nc(-c4cncc(O[C@H]5CNCCC56CC6)n4)c3c2)c(F)c1 [Example 462]
0.346	–	0.001	–	–	–	–	–	Nc1ccc(-c2ccc3[nH]nc(-c4cncc(O[C@H]5CNCCC56CC6)n4)c3c2)c(F)n1 [Example 466]
